B1: CD86: costimulatory molecule incorporated into DNA vaccines (protein, UniProt P42081 24-329, looked up)
T-lymphocyte activation …: APLKIQAYFNETADLPCQFANSQNQSLSELVVFWQDQENLVLNEVYLGKEKFDSVHSKYMGRTSFDSDSWTLRLHNLQIKDKGLYQCIIHHKKPTGMIRIHQMNSELSVLANFSQPEIVPISNITENVYINLTCSSIHGYPEPKKMSVLLRTKNSTIEYDGVMQKSQDNVTELYDVSISLSVSFPDVTSNMTIFCILETDKTRLLSSPFSIELEDPQPPPDHIPWITAVLPTVIICVMVFCLILWKWKKKKRPRNSYKCGTNTMEREESEQTKKREKIHIPERSDEAQRVFKSSKTSSCDKSDTCF
B2: CD40L: costimulatory molecule incorporated into DNA vaccines (protein, UniProt P29965 113-261, looked up)
CD40 ligand, soluble form: MQKGDQNPQIAAHVISEASSKTTSVLQWAEKGYYTMSNNLVTLENGKQLTVKRQGLYYIYAQVTFCSNREASSQAPFIASLCLKSPGRFERILLRAANTHSSAKPCGQQSIHLGGVFELQPGASVFVNVTDPSQVSHGTGFTSFGLLKL
B3: IL-7: cytokine incorporated into DNA vaccines (protein, UniProt P13232 26-177, looked up)
Interleukin-7: DCDIEGKDGKQYESVLMVSIDQLLDSMKEIGSNCLNNEFNFFKRHICDANKEGMFLFRAARKLRQFLKMNSTGDFDLHLLKVSEGTTILLNCTGQVKGRKPAALGEAQPTKSLEENKSLKEQKKLNDLCFLKRLLQEIKTCWNKILMGTKEH
B4: LFA-3: costimulatory molecule incorporated into DNA vaccines (protein, UniProt P19256 29-250, looked up)
Lymphocyte …: FSQQIYGVVYGNVTFHVPSNVPLKEVLWKKQKDKVAELENSEFRAFSSFKNRVYLDTVSGSLTIYNLTSSDEDEYEMESPNITDTMKFFLYVLESLPSPTLTCALTNGSIEVQCMIPEHYNSHRGLIMYSWDCPMEQCKRNSTSIYFKMENDLPQKIQCTLSNPLFNTTSSIILTTCIPSSGHSRHRYALIPIPLAVITTCIVLYMNGILKCDRKPDRTNSN
B5: CD80: costimulatory molecule incorporated into DNA vaccines (protein, UniProt P33681 35-288, looked up)
T-lymphocyte activation …: VIHVTKEVKEVATLSCGHNVSVEELAQTRIYWQKEKKMVLTMMSGDMNIWPEYKNRTIFDITNNLSIVILALRPSDEGTYECVVLKYEKDAFKREHLAEVTLSVKADFPTPSISDFEIPTSNIRRIICSTSGGFPEPHLSWLENGEELNAINTTVSQDPETELYAVSSKLDFNMTTNHSFMCLIKYGHLRVNQTFNWNTTKQEHFPDNLLPSWAITLISVNGIFVICCLTYCFAPRCRERRRNERLRRESVRPV
B6: CD54: costimulatory molecule incorporated into DNA vaccines (protein, UniProt P05362 28-532, looked up)
Intercellular adhesion …: QTSVSPSKVILPRGGSVLVTCSTSCDQPKLLGIETPLPKKELLLPGNNRKVYELSNVQEDSQPMCYSNCPDGQSTAKTFLTVYWTPERVELAPLPSWQPVGKNLTLRCQVEGGAPRANLTVVLLRGEKELKREPAVGEPAEVTTTVLVRRDHHGANFSCRTELDLRPQGLELFENTSAPYQLQTFVLPATPPQLVSPRVLEVDTQGTVVCSLDGLFPVSEAQVHLALGDQRLNPTVTYGNDSFSAKASVSVTAEDEGTQRLTCAVILGNQSQETLQTVTIYSFPAPNVILTKPEVSEGTEVTVKCEAHPRAKVTLNGVPAQPLGPRAQLLLKATPEDNGRSFSCSATLEVAGQLIHKNQTRELRVLYGPRLDERDCPGNWTWPENSQQTPMCQAWGNPLPELKCLKDGTFPLPIGESVTVTRDLEGTYLCRARSTQGEVTRKVTVNVLSPRYEIVIITVVAAAVIMGTAGLSTYLYNRQRKIKKYRLQQAQKGTPMKPNTQATPP

System: mice
Assay: not given
Conditions: gene incorporated into allergen DNA vector; cited from earlier work

Molecule | airway hyperresponsiveness
IL-18: cytokine (gene) incorporated into DNA vaccines | successfully reverse airway hyperresponsiveness

System: not given
Assay: not given
Conditions: molecule incorporated into DNA vaccine; cited from earlier work

Molecule | Cellular response | CTL | Antibody
CTLA4: costimulatory molecule incorporated into DNA vaccines | ↑proliferation |  | 
GM-CSF: cytokine incorporated into DNA vaccines |  | ↑CTL | 
IFNγ: cytokine incorporated into DNA vaccines |  | ↑CTL | 
IL-5: cytokine incorporated into DNA vaccines |  |  | ↑IgG
IL-15: cytokine incorporated into DNA vaccines | ±↑proliferation | ↑CTL | IgG?
IL-18: cytokine (gene) incorporated into DNA vaccines | ↑proliferation | ↑CTL | ↑IgG
TGF-β |  |  | ↑IgG1
B1 |  | ↑CTL | 
B2 | ↑IFNγ | ↑CTL | 
B3 | ↑IFNγ |  | 
B4 |  | ↑CTL | 
B5 |  | ↑CTL | 
B6 |  | ↑CTL | 

System: CD14+ peripheral blood monocytes cultured to DC
Assay: Maturation of monocyte-derived dendritic cells to CD83+ cells
Type: cell-based
Conditions: 15 ng/ml, within 1 day
Procedure: CD14^+ peripheral blood monocytes are adhered to tissue culture flasks and cultured in the presence of 1% AB serum, GM-CSF (400 ng/ml) and IL-4 (400 IU/ml) for 7 days. This yields cells with the morphology of DC and a mean of 49% with the CD1a^+ marker which is indicative of the immature form of the DC capable of taking up and presenting antigen. These cells are then matured to CD83^+ cells by the addition of TNFα (15 ng/ml), which enables the DC to present antigen to cytotoxic T-cells. 7% of the cells become CD83^+ within 1 day, but 3 days at least are required for maximum effect. It is possible that monocyte conditioned medium could replace the 1% AB serum but this is probably not desirable.

Molecule | cells becoming CD83+
TNFα | 7%

System: NF-κB
Assay: Preliminary work: NF-κB induction and APC/DC function
Type: cell-based
Conditions: not given

Molecule | induction of NF-κB and enhancement of APC/DC function
MEKK1: kinase named as NF-κB inducer | can induce NF-κB and enhance APC such as DC function

Source: patent US20040241152A1, “Methods for inducing an immune response with an elevated th1/th2 ratio, by intracellular induction of nfkappab” (priority 2001, published 2004)
